The text below walks through data of patent US9376470B2, “Polypeptide having angiogenesis-inducing activity and antibacterial activity, and use thereof for medical purposes” (FunPep Inc., priority 2008, dated 2016).

What all share (assay type): cell-based
For experiment [1], the system named is human vascular endothelial cells and fibroblast cells (co-culture). As to the kind of experiment: Lumen formation with angiogenesis kit KZ-1000 (section 7). Particulars: day 11. As for the experimental part: Using an angiogenesis kit available from KURABO […] LTD. (Product No.: KZ-1000), lumen formation by the polypeptides was evaluated. Vascular endothelial growth factor A (VEGF-A) as a positive control, and polypeptide-free, unstimulated group as a negative control, were used.
Using a special medium for angiogenesis which was attached to the kit, each polypeptide was prepared such that the concentration thereof was respectively 0.5, 2.5 and 10 μg/mL. To a 24-well plate in which cells were plated (the cells were those obtained by co-culturing human vascular endothelial cells and fibroblast cells at an optimum concentration) which was attached to the kit, the special medium for angiogenesis containing each polypeptide was added, and the cells were cultured at 37° C. under 5% CO2. The medium was replaced with a medium containing the same additive on day 4, day 7 and day 9 of culture. On day 11 from the beginning of the culture, staining was performed using a kit for staining lumina (for CD31 antibody staining) according to the following procedure.
The media were removed, and washing was performed with Dulbecco's phosphate buffered saline (PBS(−)). Thereafter, ice-cooled 70% ethanol was added to the plate, and the cells were fixed. Each well was washed with a blocking solution (Dulbecco's phosphate buffered saline (PBS(−)) containing 1% BSA). To each well, 0.5 mL of the primary antibody for CD31 staining (mouse anti-human CD31 antibody) 4000-fold diluted with the blocking solution was added, and then the plate was incubated for 60 minutes at 37° C. After the completion of the incubation, each well was washed totally 3 times with 1 mL of the blocking solution. Then, 0.5 mL of the secondary antibody solution (goat anti-mouse IgG/alkaline phosphatase conjugate) 500-fold diluted with the blocking solution was added to each well. The plate was incubated for 60 minutes at 37° C., and thereafter each well was washed 3 times with 1 mL of distilled water. During that period, 2 tablets of BCIP/NBT were dissolved into distilled water, and the obtained solution was filtered through a filter having a pore size of […] to prepare a substrate solution. To each well, 0.5 mL of the prepared BCIP/NBT substrate solution was added, and the plate was incubated at 37° C. until the lumina turned to deep purple (typically for 5-10 minutes). After the completion of the incubation, each well was washed 3 times with 1 mL of distilled water. After washing, the washing solution was removed by aspiration, and the plate was left to stand and dry naturally. After drying, photographs of each well were taken under a microscope.
Each of the obtained images was quantified using an angiogenesis quantification software. The area and length of formed lumina observed in each visual field were measured on the basis of the scale of an angiogenesis quantification software available from KURABO […] LTD. (angiogenesis quantification software Ver 1.0), and evaluated on the basis of the ratio of the area or length of polypeptide-containing groups relative to the area or length of the negative control group.

Experiment [2] concerns Staphylococcus aureus ATCC29213. As to the kind of experiment: Antibacterial activity, ATP assay (BacTiter-Glo). The note with it: for ATP (%) mean, Staphylococcus aureus: Table 4-1, ATP assay concentration: peptides 10, TOB 1.0, OX 0.5 μg/ml. As to the method:
(§1) The antibacterial activity of the polypeptides was measured using an ATP assay method. That is, using BacTiter-Glo Microbial Cell Viability Assay kit available from PROMEGA, the antibacterial activity of the peptides was evaluated from the viability of bacteria. […] With respect to the strains, Staphylococcus aureus ATCC29213 (S. aureus ATCC29213) as Gram-positive bacteria, or, alternatively, Pseudomonas aeruginosa (P. aeruginosa ATCC27853) as Gram-negative bacteria, was used. The bacteria were cultured in media for 3 to 4 hours, and thereafter absorbances at A600 were measured. Bacterial suspensions were diluted with Mueller-Hinton broth (MHB) according to McFarland #0.5. Each strain was added so as to attain about 0.5−1×10^5 CFU/mL (final concentration) in terms of Escherichia coli. […] A solution to which the peptides were not added was considered as a negative control, and a solution to which tobramycin (TOB) was added was considered as a positive control. […] Relative values were calculated by comparison with the negative control, and these values were regarded as the viability. ATP (%) of the antibacterial activity was measured in the same manner as mentioned above, and the “minimum inhibitory concentration (MIC)” was measured as follows. MIC is the lowest concentration of an agent that may inhibit the growth of a bacterium. MIC is used as a parameter for the efficacy of an antibacterial agent, for the strength of bacterial sensitivity, or the like. The bacteria can grow (proliferate) when the concentration is not higher than MIC, and cannot grow when the concentration is higher than MIC. Its measurement is carried out according to a method defined as a standard method by Japanese Society of Chemotherapy or CLINICAL AND LABORATORY […] (CLSI), but, in this Example, its measurement was carried out by a broth microdilution method in accordance with “M100-S17/M7-A7” (Performance Standards for Antimicrobial Susceptibility Testing; Seventeenth Informational Supplement, Vol. 27 No. 1) published by CLSI on January, 2007. That is, sensitivity test of agents was carried out using a microtiter plate or test tubes. With respect to each strain, Escherichia coli: ATCC 25922 (Escherichia coli ATCC 25922), Pseudomonas aeruginosa: ATCC 27853 (Pseudomonas aeruginosa ATCC 27853), Staphylococcus aureus: ATCC29213 (Staphylococcus aureus ATCC29213), Klebsiella pneumoniae: JCM 1662 (Klebsiella pneumoniae JCM 1662), enterobacteria (1): JCM 1232 (Enterobacter cloacae JCM 1232), enterobacteria (2): JCM 1235 (Enterobacter aerogenes JCM 1235), and Staphylococcus epidermidis: JCM 2414 (Staphylococcus epidermidis JCM 2414), were used. […] As the concentrations of the agents in ATP assay, the concentrations as described in the Tables were used.

Experiment [3] relates to Pseudomonas aeruginosa ATCC27853. As to the kind of experiment: Antibacterial activity, ATP assay (BacTiter-Glo). Particulars: Table 4-1; ATP assay concentration: peptides 10, TOB 1.0, CPFX 1.0, OX 0.5, MEPM 1.0 μg/ml. As to the method:
as §1

Molecules are shown by their SMILES. Peptide text beside a SMILES is read from it.

As to `CC[C@H](C)[C@H](NC(=O)[C@H](CC(C)C)NC(=O)[C@@H](N)CCCCN)C(=O)N[C@@H](Cc1ccccc1)C(=O)N[C@@H](CC(C)C)C(=O)N[C@@H](Cc1c[nH]cn1)C(=O)N[C@@H](CCCNC(=N)N)C(=O)N[C@@H](CC(C)C)C(=O)N[C@@H](CCCCN)C(=O)N[C@@H](CCCNC(=N)N)C(=O)N[C@@H](CCSC)C(=O)N[C@@H](CCCNC(=N)N)C(=O)N[C@@H](CCCCN)C(=O)N[C@@H](CCCNC(=N)N)C(=O)N[C@@H](CC(C)C)C(=O)N[C@@H](CCCCN)C(=O)N[C@@H](CCCNC(=N)N)C(=O)N[C@@H](CCCCN)C(=O)N[C@@H](CC(C)C)C(=O)N[C@@H](CCCNC(=N)N)C(N)=O` [SR-4] (H-KLIFLHRLKRMRKRLKRKLR-NH2; N-terminus assumed), in experiment [1] (polypeptide 0.5 μg/mL), the “The Area of Lumina (relative value, negative control as 100)” value worked out at 90.5 and the “The Length of Lumina (relative value, negative control as 100)” value came out at 97.0. Moreover, in experiment [1] (polypeptide 10 μg/mL), the “The Area of Lumina (relative value, negative control as 100)” value was determined as 96.2 and the “The Length of Lumina (relative value, negative control as 100)” value stood at 96.4. The “antibacterial activity against Staphylococcus aureus compared with AG30-5C” value in experiment [2] (10 μg/mL, ATP assay) was “higher antibacterial activity against Staphylococcus aureus than AG30-5C”. The “ATP (%) mean, Staphylococcus aureus” value in experiment [2] was 1.0%. For the same compound, the “ATP (%) mean, Pseudomonas aeruginosa” value in experiment [3] is on record as 9.8%.
On to `CSCC[C@H](NC(=O)[C@H](CCCNC(=N)N)NC(=O)[C@@H](N)CCCCN)C(=O)N[C@@H](CCCNC(=N)N)C(=O)N[C@@H](CCCCN)C(=O)N[C@@H](CCCNC(=N)N)C(=O)N[C@@H](CC(C)C)C(=O)N[C@@H](CCCCN)C(=O)N[C@@H](CCCNC(=N)N)C(=O)N[C@@H](CCCCN)C(=O)N[C@@H](CC(C)C)C(=O)N[C@@H](CCCNC(=N)N)C(=O)N[C@@H](CC(C)C)C(=O)N[C@@H](Cc1c[nH]c2ccccc12)C(=O)N[C@@H](Cc1c[nH]cn1)C(=O)N[C@@H](CCCNC(=N)N)C(=O)N[C@@H](CCCCN)C(=O)N[C@@H](CCCNC(=N)N)C(=O)N[C@@H](Cc1ccc(O)cc1)C(=O)N[C@@H](CCCCN)C(=O)O` [SR-5] (H-KRMRKRLKRKLRLWHRKRYK-OH; N-terminus assumed), for which the results for the “The Area of Lumina (relative value, negative control as 100)” value in experiment [1] (polypeptide 0.5 μg/mL) and in experiment [1] (polypeptide 10 μg/mL) were 103.4 and 107.7, respectively. The “The Length of Lumina (relative value, negative control as 100)” value in experiment [1] (polypeptide 0.5 μg/mL) is reported as 106.2; in experiment [1] (polypeptide 10 μg/mL) it was 106.8. Moreover, the “ATP (%) mean, Staphylococcus aureus” value in experiment [2] was found to be 24.2%. Moreover, the “ATP (%) mean, Pseudomonas aeruginosa” value in experiment [3] stood at 16.4%.
